The values below are quoted from earlier work in patent publication US8188123B2, “(Pyrrolidin-2-yl)phenyl derivatives” (priority 2008, dated 2012).

Like-named read-outs stand apart in the source and are kept apart here.

Data set [1] has as its system ectopic discharges in A-beta and A-delta fibres. To be noted: nerve injury.
The test system of data set [2] is mechanical allodynia. To be noted: intraperitoneal administration; Chung/von Frey.
The subject of a further data set is allodynia. To be noted: rat CFA model of inflammatory pain.
The next data set deals with spontaneous pain. To be noted: rat mild thermal injury model.
Data set [3] concerns mechanical allodynia. To be noted: local administration to the sciatic nerve 4 h after surgery; Brennan model.
The test system of data set [4] is nerve injured myelinated DRG.

As to `CCN(c1ccccc1)c1cc(=NC)n(C)c(C)n1.Cl` [ZD 7288], the “firing frequency of ectopic discharges” value in data set [1] was “reduced the firing frequency of ectopic discharges in A-beta and A-delta fibres, without causing conduction block”. In addition, the values for the mechanical allodynia result with mechanical allodynia [2] and in the data set with mechanical allodynia [3] were “dose-dependently reverses mechanical allodynia” and “attenuates mechanical allodynia”, respectively. Moreover, the allodynia result in the data set on allodynia is “suppresses allodynia”. Besides, in the data set with spontaneous pain, the spontaneous pain result is reported as “blocks spontaneous pain”. Besides, the spontaneous activity entry in data set [4] was “reduces spontaneous activity”.
